In one data set the test system is Rat Aorta. The data set is described as follows: Inhibition of calcium chloride-induced contraction of depolarized vascular smooth muscle segments (rat aorta). The conditions noted are these: 1.0 mM calcium chloride-induced contraction; for inhibition at 0.1 µM / inhibition at 0.01 µM: Rattus norvegicus, read-out: Percent Inhibition of Rat Aorta; for inhibition at 0.1 µM / Percent Inhibition of Rat Aorta: at 10^-7 M; for inhibition at 0.01 µM: at 10^-8 M. The data set is classed as cell-based, rat (male Sprague-Dawley). Here is the method: The property may be observed in a test in which segments of vascular smooth muscle obtained from male Sprague-Dawley rats are suspended in physiological salt solution in a tissue bath instrumented for recording contractions. After the tissue has been equilibrated, washed in calcium-free physiological salt solution and then depolarized, 1.0 mM calcium chloride is re-added to induce contraction. After the contraction has reached a plateau, tissues are washed and a test compound or vehicle is added to determine the effect on a second contraction achieved by the above cyclic protocol. From measuring the initial contraction as well as the second contraction in the presence of the test compound, the extent of inhibition may be calculated. The results of these tests for representative compounds in the compositions of the present invention are seen in the following table. The results are with tests conducted at very low concentrations of 10^-7 M or less.

Data set [1] in a line: Isomerization of the 5H axial to the 5H equatorial isomer followed by 1H NMR. Format: physicochemical. The conditions noted are these: 3.67 milligrams in 1 milliliter CDCl3, heated at 55° C.±1° C. As for the experimental part: Isomerization of the 5H axial isomer of 4-(5H-dibenzo[a,d]cyclohepten-5-yl)-1-methylpiperidine to the 5H equatorial isomer was carried out in an NMR tube. 3.67 milligrams of the axial isomer was dissolved in 1 milliliter of CDCl3 at 24° C. and the sample inserted into the probe of a Nicolet NT-360 NMR spectrometer where it was heated at 55° C.±1° C. NMR spectra (^1 H) were obtained every 864 seconds until isomerization to the equatorial isomer was complete as evidenced by the disappearance of the singlet corresponding to the 5H-axial proton and appearance of the 5H-equatorial proton (about 48,727 seconds).

One may read the inhibition as how much of the control response was suppressed. Consider `CN1CCC(C2c3ccccc3C=Cc3ccc(Br)cc32)CC1` (racemic) [4-(3-Bromo-5H-dibenzo[a,d]cyclohepten-5-yl)-1-methylpiperidine, equatorial isomer], for which the inhibition at 0.1 µM in the data set on Rat Aorta was 80%.

Turning to `COc1ccc2c(c1)C(C1CCN(C)CC1)c1ccccc1C=C2` (racemic) [4-(3-Methoxy-5H-dibenzo[a,d]cyclohepten-5-yl)-1-methylpiperidine], in the data set on Rat Aorta, the inhibition at 0.01 µM amounted to 37%.

In the case of `CN1CCC(C2c3ccccc3C=Cc3ccc(Br)cc32)CC1` (racemic) [5H--ax (±)4-(3-Bromo-5H--dibenzo[a,d]cyclohepten-5-yl)-1-met] [4-(3-Bromo-5H-dibenzo[a,d]cyclohepten-5-yl)-1-methylpiperidine, axial isomer], the “Percent Inhibition of Rat Aorta” value in the data set with Rat Aorta is 79%.

Turning to `CN1CCC(C2c3ccccc3C=Cc3ccc(Br)cc32)CC1` (single isomer, unassigned; (+)) [5H--eq (+)4-(3-Bromo-5H--dibenzo[a,d]cyclohepten-5-yl)-1-met] [(+)-4-(3-bromo-5H-dibenzo[a,d]cyclohepten-5-yl)-1-methylpiperidine], in the data set with Rat Aorta, the “Percent Inhibition of Rat Aorta” value is recorded as 22%.

Consider `CN1CCC(C2c3ccccc3C=Cc3ccc(Br)cc32)CC1` (single isomer, unassigned; (-)) [5H--eq (-)4-(3-Bromo-5H--dibenzo[a,d]cyclohepten-5-yl)-1-met] [(-)-4-(3-bromo-5H-dibenzo[a,d]cyclohepten-5-yl)-1-methylpiperidine], for which, in the data set on Rat Aorta, the “Percent Inhibition of Rat Aorta” value was found to be 92%.

As to `C1=Cc2ccccc2C(C2CCN(C3CCCCC3)CC2)c2ccccc21` [4-(5H-Dibenzo[a,d]cyclohepten-5-yl)-1-cyclohexylpiperidine], the inhibition at 0.1 µM with Rat Aorta is 48%.

`CC(C)N1CCC(C2c3ccccc3C=Cc3ccccc32)CC1` [4-(5H-Dibenzo[a,d]cyclohepten-5-yl)-1-isopropylpiperidine]: in the data set with Rat Aorta, the inhibition at 0.1 µM was found to be 44%.

`CN1CCC(C2c3ccccc3C=Cc3ccccc32)CC1` [4-(5H-Dibenzo[a,d]cyclohepten-5-yl)-1-methylpiperidine, axial isomer]: in the data set with Rat Aorta, the inhibition at 0.1 µM worked out at 30%. For the same compound, in data set [1], the “time until isomerization to the equatorial isomer was complete” value is “about 48,727 seconds”.

For the compound `CN1CCC(C2c3ccccc3C=Cc3ccccc32)CC1` [4-(5H-Dibenzo[a,d]cyclohepten-5-yl)-1-methylpiperidine, equatorial isomer], in the data set with Rat Aorta, the inhibition at 0.01 µM was 11%.

In the case of `C[N+]1([O-])CCC(C2c3ccccc3C=Cc3ccccc32)CC1` (stereo not drawn) [4-(5H-Dibenzo[a,d]cyclohepten-5-yl)-1-methylpiperidine-1-oxide monohydrate], the inhibition at 0.1 µM with Rat Aorta came out at 17%.

As for `C1=Cc2ccccc2C(C2CCNCC2)c2ccccc21` [4-(5H-Dibenzo[a,d]cyclohepten-5-yl)piperidine], the inhibition at 0.1 µM in the data set with Rat Aorta is 39%.

The values above are taken from patent US4626542A, “4-(5H-dibenzo[a,d]cyclohepten-5-yl)piperidine compounds, pharmaceutical compositions and methods” (Merck & Co., Inc., priority 1984, dated 1986).
